One test has as its system Imidazoline I Sites. The test is described as follows: [125I]p-iodoclonidine competition binding to bovine RVLM membranes, imidazoline sites. The note with it: for Ki: read-out: Ki, Imidazoline I Sites. From the text: Whole bovine brains and adrenal glands were obtained from a local slaughterhouse. Brains were immediately placed on a chilled glass plate, washed with ice-cold Krebs'-Henseleit buffer, and dissected. The rostral medulla was isolated by transecting the brainstem rostrally at the posterior margin of the trapezoid body and caudally 1 cm caudal to the obex. The pia-arachnoid was removed, and the lateral medulla was isolated by a sagittal section through the lateral margin of the pyramids, and then bisected. The ventral half was defined as the ventrolateral medulla (VLM). Brain samples were transported on ice to the laboratory and processed immediately.
Fresh bovine VLM was homogenized by using a polytron (Tekmar Tissuemizer, setting 80 for 2×15 sec) in 20 volumes of ice-cold Hepes-buffered isotonic sucrose (pH brought to 7.4 with Tris base) containing the protease inhibitors (1,10)-phenanthroline (100 μM) and phenylmethylsulfonyl fluoride (50 μM) in order to inhibit degradation of receptor protein. Bovine adrenomedullary cells were homogenized in 15 ml Hepes-buffered isotonic sucrose by 10 strokes in a glass-glass hand-held homogenizer. All three homogenates were centrifuged at 1000×g for 5 min at 4° C. to remove nuclei and debris. The pellets (P1) were resuspended in 20 ml of homogenization buffer, and centrifuged again at 1000×g for 5 min. The combined supernatants were centrifuged at 48,000 g for 18 min at 4° C., and the resulting P2 pellet was resuspended in 10 to 25 volumes of 50 mM Tris-HCl buffer (pH 7.7) containing 5 mM EDTA. After recentrifugation at 48,000 g for 18 min, the resulting membrane pellet was resuspended in Tris-HCl containing 25 mM NaCl, preincubated for 30 min at 25° C., chilled on ice, centrifuged again, resuspended a final time in Tris-HCl alone, centrifuged, flash-frozen, and stored at −70° C. for up to three months.
Radioligand binding assays with [^3H]clonidine or [^125I]p-iodoclonidine for determination of specific membrane binding to VLM and renal medulla imidazoline sites and α2-adrenergic receptors were performed by a modification of methods previously described (Ernsberger P. et al., 1997, J. Hypertension 1997, 15:S9-S23). Membranes were slowly thawed and resuspended in Tris-Hepes buffer (5.0 mM; pH 7.7 at 25° C., containing 0.5 mM EDTA, 0.5 mM EGTA, and 0.5 mM MgCl2) at a concentration of 1 mg protein/ml for the VLM, 4 mg protein/ml for the renal medulla, and 0.2 mg protein/ml for adrenomedullary cells. Assays were conducted in a total volume of 250 μl in polypropylene 96-well plates (Beckman Macrowell), and each well contained 125 μl membrane suspension, 25 μl radioligand, and 100 μl drug or vehicle. Incubations were initiated by the addition of membrane and were carried out for 30 min at 22° C. Nonspecific binding was defined in the presence of 10 μM BDF-6143, an imidazoline adrenergic agent. Specific α2-adrenergic binding was defined by inhibition with (−)epinephrine (0.1 mM). In experiments using catecholamines, all samples contained ascorbic acid in a final concentration of 0.001%. Incubations were terminated by vacuum filtration using a cell harvester (Brandel) equipped with Teflon tubing to reduce absorption of the radioligand over glass fiber filters (Schleicher & Schuell #34) which were preincubated for 4 h at 4° C. in 0.03% polyethylimine to reduce nonspecific binding to the filter. The filters were washed four times with 5 ml ice-cold Tris-HCl, placed in scintillation vials, covered with 4 ml scintillation cocktail (BioSafe II, Research Products International), and counted at 50% efficiency (Beckman LS5801). Protein was assayed by the bicinchoninic acid method.
Data were obtained as dpm and transferred to the Equilibrium Binding Data Analysis (EBDA) program for initial processing; 4 to 10 experiments were analyzed simultaneously by using the LIGAND program for nonlinear curve-fitting. Protein assay data were also analyzed by nonlinear curve-fitting.
Competition binding assays. […]

Test [1] relates to I3R. As to the kind of experiment: I3R model: insulin release from rat islets of Langerhans. It is filed as cell-based. The protocol:
(§1) Islets of Langerhans from male Wistar rats were isolated by collagenase digestion in a medium of bicarbonate-buffered physiological saline solution containing 4 mM D-glucose and 1 mM CaCl2. Islets were selected under a binocular dissecting microscope and were used within two hours of isolation. Islets from humans were isolated from heart-beating cadaver organ donors by collagenase digestion and density gradient centrifugation (Chan, S. L. F., et al., 1997, Brit. J. Pharmacol. 120:926-932).
Incubations were done in 96-well plates. Isolated islets were incubated in 100 μl buffer solution supplemented with bovine serum albumin in humidified air: CO2 (95:5%) at 37° C. in the presence of test agents. To eliminate any potential alpha-2 responses, yohimbine (10 μM), a potent alpha2-adrenergic blocker, was included in all incubations. After 60 min incubation, samples of medium were removed for measurement of insulin release by radioimmunoassay using anti-bovine insulin antiserum. Presence of insulin in the test media were compared to controls; positive differences represented amounts of insulin released. In reversal experiments, diazoxide (e.g., 200 μM) was pre-incubated to block glucose-induced insulin release. In these studies, test reagents were used to determine if they were capable of overcoming diazoxide's inhibitory effects on K+ ATP channels, a well known action of imidazoline secretagogues in islet cells. For example, efaroxan (an inhibitor of I-1 responses in adrenal medullary cells) is a well known I-3 agonist, i.e., it stimulates (at 100 μM) release of insulin and overcomes diazoxide inhibition thus illustrating again the dictomy between I1 and I3 receptor subtypes.
I3R model: Insulin release from pancreas (Eglen, R. M., Hudson, A. L., Kendall, D. A., Nutt, D. J., Morgan, N. G., Wilson, V. G. & Dillon, M. P. (1998) TIPS 19, 381-390; Chan, S. L. F. (1998) Gen. Pharmacol. 31, 525-529; Morgan, N. G. (1999) Exp. Opin. Invest. Drugs 8, 575-584). Islets of Langerhans from male Wistar rats or human pancreata were isolated by collagenase digestion. Hand-picked islets were incubated in NaHCO3-buffered saline containing 1 mM CaCl2, 1 mg/ml BSA and test reagents. After incubation, insulin levels in supernatants were analyzed by RIA. The I3-blocker, KU-14R, served to verify I3R function.

Test [2] deals with I3R. The test is described as follows: I3R model: insulin release from human islets. It counts as cell-based. The protocol:
as §1
Incubations were done in 96-well plates. Isolated islets were incubated in 100 μl buffer solution supplemented with bovine serum albumin in humidified air: CO2 (95:5%) at 37° C. in the presence of test agents. To eliminate any potential alpha-2 responses, yohimbine (10 μM), a potent alpha2-adrenergic blocker, was included in all incubations. After 60 min incubation, samples of medium were removed for measurement of insulin release by radioimmunoassay using anti-bovine insulin antiserum. […]
I3R model: Insulin release from pancreas (Eglen, R. M., Hudson, A. L., Kendall, D. A., Nutt, D. J., Morgan, N. G., Wilson, V. G. & Dillon, M. P. (1998) TIPS 19, 381-390; Chan, S. L. F. (1998) Gen. Pharmacol. 31, 525-529; Morgan, N. G. (1999) Exp. Opin. Invest. Drugs 8, 575-584). […] After incubation, insulin levels in supernatants were analyzed by RIA. […]

A further test concerns β-TC3 cells. As to the kind of experiment: Insulin release from insulinoma cells in culture. It is filed as cell-based.

Where “and” joins values, the source holds several entries; their conditions need not be identical. Equal values may be shown once. Entries after “also recorded” stand apart in the source; their conditions may differ. Read-outs that look alike come from different tables or passages of the source.

Take `O=C(O)Cc1cn(C2OC(COP(=O)(O)O)C(O)C2O)cn1` [IAA-RP, 1-(β-D-ribofuranosyl)-imidazole-4-acetic acid 5′ phosphate]: the “affinity of high-affinity RVLM sites relative to low-affinity RVLM sites and adrenal I1R sites” value in the test on Imidazoline I Sites is over 100 fold. Also, the “fold greater affinity than IAA-R in displacing [125I]p-iodoclonidine” value with Imidazoline I Sites is given as over 100 fold. The “Percent Sites, Imidazoline I Sites (high affinity component)” value in the test with Imidazoline I Sites (Control (no masking ligand)) was 71% and 71±5%; with Imidazoline I Sites (With epinephrine (α2Rs masked)), 86% and 86±4%. Besides, the Ki on Imidazoline I Sites (Control (no masking ligand)) was 0.16 ± 0.038 µM; on Imidazoline I Sites (With epinephrine (α2Rs masked)), 0.1 ± 0.019 µM. For the same compound, in the test with Imidazoline I Sites (RVLM), the “selectivity for I-Rs over α2-sites” value is over 1000 fold. Moreover, the “reversal of the inhibitory action of diazoxide on glucose-induced insulin release” value is reported as “overcame inhibitory effects of the KATP-channel agonist, diazoxide” in the test with I3R [1] and “able to reverse the inhibitory action of diazoxide” with I3R [1] (listed as tele-linked IAA-RP). The “stimulation of insulin release (in words)” value with I3R [1] (rat islets) was “potent stimulants of insulin release; also recorded: increased insulin secretion from islets; also recorded: far more potent than efaroxan”. Moreover, the EC50 in the test on I3R [1] (rat islets, glucose 20 mM and diazoxide 200 μM) was 0.03 to 0.05 µM; in the test with I3R [2], about 0.003 µM. Besides, the “stimulation of insulin release” value in the test with β-TC3 cells is on record as “capable of stimulating insulin release”.

The Ki is a dissociation constant, usually derived from enzyme kinetics or from competition with a known ligand. A word on the EC50: it is the concentration that produces a half-maximal response.

The record behind these values is patent publication US7385039B2, “Methods and compositions for regulating imidazoline receptors” (priority 1998, dated 2008).
